Test results taken from the NIST ThermoML archive (doi:10.1016/j.fluid.2012.10.002).
Values joined by “and” are separate entries in the source; they are usually repeats but may differ in a detail not shown here. Identical values can stand only once.

Assay: xn = mol fraction of the nth substance listed
Settings: Gas, Frequency=0.05 MHz, Linear variable-path acoustic interferometer

FC(F)(F)C(F)(F)F [hexafluoroethane] + FC(F)(F)C(F)(F)C(F)(F)F
x1 = 1
Settings	speed of sound [m/s]
261.1 K, 183 kPa	127.95
263.74 K, 185 kPa	128.64
266.3 K, 186 kPa	129.3
268.82 K, 188 kPa	129.95
270.22 K, 189 kPa	130.3
271.26 K, 190 kPa	130.57
273.89 K, 192 kPa	131.26
276.33 K, 194 kPa	131.87
278.84 K, 195 kPa	132.51
281.3 K, 197 kPa	133.11
281.31 K, 197 kPa	133.1
283.84 K, 199 kPa	133.77
286.31 K, 201 kPa	134.35
288.82 K, 203 kPa	135
293.64 K, 206 kPa	136.18
296.91 K, 208 kPa	136.93
301.03 K, 212 kPa	137.94
303.69 K, 213 kPa	138.56
306.24 K, 215 kPa	139.22
308.82 K, 217 kPa	139.82
311.28 K, 219 kPa	140.41
313.79 K, 221 kPa	141
318.78 K, 224 kPa	142.17
323.78 K, 228 kPa	143.37

FC(F)(F)C(F)(F)C(F)(F)F [octafluoropropane] + FC(F)(F)C(F)(F)F
Settings	speed of sound
258.87 K, 181 kPa, x2 = 0	104.06 m/s
261.04 K, 214 kPa, x2 = 0.146	106.6 m/s
261.17 K, 183 kPa, x2 = 0	104.66 m/s
263.69 K, 217 kPa, x2 = 0.146	107.31 m/s
266.22 K, 219 kPa, x2 = 0.146	107.96 m/s
268.73 K, 189 kPa, x2 = 0	106.57 m/s
268.76 K, 222 kPa, x2 = 0.146	108.61 m/s
270.28 K, 190 kPa, x2 = 0	106.94 m/s
271.52 K, 214 kPa, x2 = 0.11	108.77 m/s
271.54 K, 224 kPa, x2 = 0.146	109.31 m/s
273.74 K, 193 kPa, x2 = 0	107.79 m/s
273.82 K, 227 kPa, x2 = 0.146	109.89 m/s
273.86 K, 202 kPa, x2 = 0.048	108.5 m/s
273.88 K, 216 kPa, x2 = 0.11	109.36 m/s
273.9 K, 216 kPa, x2 = 0.11	109.35 m/s
276.23 K, 195 kPa, x2 = 0	108.4 m/s
276.3 K, 219 kPa, x2 = 0.11	109.94 m/s
276.35 K, 229 kPa, x2 = 0.146	110.52 m/s
278.61 K, 206 kPa, x2 = 0.048	109.65 m/s
278.75 K, 197 kPa, x2 = 0	109 m/s
279.06 K, 231 kPa, x2 = 0.146	111.21 m/s
281.01 K, 208 kPa, x2 = 0.048	110.21 m/s
281.09 K, 223 kPa, x2 = 0.11	111.13 m/s
281.24 K, 199 kPa, x2 = 0	109.59 m/s
281.35 K, 233 kPa, x2 = 0.146	111.76 m/s
281.94 K, 224 kPa, x2 = 0.11	111.33 m/s
283.42 K, 225 kPa, x2 = 0.11	111.69 m/s
283.48 K, 210 kPa, x2 = 0.048	110.83 m/s
283.81 K, 201 kPa, x2 = 0	110.19 m/s
284.05 K, 236 kPa, x2 = 0.146	112.44 m/s
285.85 K, 212 kPa, x2 = 0.048	111.38 m/s
285.87 K, 212 kPa, x2 = 0.048	111.39 m/s
285.92 K, 227 kPa, x2 = 0.11	112.29 m/s
286.31 K, 203 kPa, x2 = 0	110.78 m/s
286.39 K, 238 kPa, x2 = 0.146	112.99 m/s
288.79 K, 205 kPa, x2 = 0	111.35 m/s
288.96 K, 241 kPa, x2 = 0.146	113.61 m/s
290.79 K, 231 kPa, x2 = 0.11	113.46 m/s
291.2 K, 207 kPa, x2 = 0	111.92 m/s
291.22 K, 217 kPa, x2 = 0.048	112.64 m/s
291.37 K, 243 kPa, x2 = 0.146	114.18 m/s
293.19 K, 218 kPa, x2 = 0.048	113.11 m/s
293.86 K, 245 kPa, x2 = 0.146	114.77 m/s
294.01 K, 245 kPa, x2 = 0.146	114.81 m/s
294.82 K, 246 kPa, x2 = 0.146	115.01 m/s
294.96 K, 235 kPa, x2 = 0.11	114.43 m/s
295.16 K, 235 kPa, x2 = 0.11	114.49 m/s
295.22 K, 220 kPa, x2 = 0.048	113.57 m/s
295.26 K, 210 kPa, x2 = 0	112.82 m/s
295.26 K, 220 kPa, x2 = 0.048	113.58 m/s
295.28 K, 220 kPa, x2 = 0.048	113.59 m/s
296.26 K, 247 kPa, x2 = 0.146	115.34 m/s
297.13 K, 248 kPa, x2 = 0.146	115.54 m/s and 115.55 m/s
298.69 K, 250 kPa, x2 = 0.146	115.9 m/s
300.46 K, 224 kPa, x2 = 0.048	114.77 m/s
301.15 K, 215 kPa, x2 = 0	114.22 m/s
301.17 K, 252 kPa, x2 = 0.146	116.47 m/s
302.82 K, 226 kPa, x2 = 0.048	115.32 m/s
302.91 K, 242 kPa, x2 = 0.11	116.26 m/s
303.66 K, 254 kPa, x2 = 0.146	117.06 m/s
303.67 K, 216 kPa, x2 = 0	114.79 m/s
303.69 K, 217 kPa, x2 = 0	114.78 m/s
306.23 K, 219 kPa, x2 = 0	115.37 m/s
307.6 K, 230 kPa, x2 = 0.048	116.4 m/s
308.64 K, 259 kPa, x2 = 0.146	118.2 m/s
311.15 K, 261 kPa, x2 = 0.146	118.77 m/s
311.27 K, 223 kPa, x2 = 0	116.48 m/s
312.3 K, 234 kPa, x2 = 0.048	117.45 m/s
312.47 K, 251 kPa, x2 = 0.11	118.45 m/s
313.65 K, 264 kPa, x2 = 0.146	119.34 m/s
314.99 K, 253 kPa, x2 = 0.11	119.04 m/s
315.91 K, 237 kPa, x2 = 0.048	118.26 m/s
316.18 K, 266 kPa, x2 = 0.146	119.91 m/s
316.26 K, 226 kPa, x2 = 0	117.58 m/s
317.39 K, 255 kPa, x2 = 0.11	119.56 m/s
318.68 K, 268 kPa, x2 = 0.146	120.47 m/s
319.74 K, 257 kPa, x2 = 0.11	120.07 m/s
321.23 K, 230 kPa, x2 = 0	118.64 m/s
322.15 K, 259 kPa, x2 = 0.11	120.6 m/s
323.51 K, 273 kPa, x2 = 0.146	121.55 m/s
323.74 K, 232 kPa, x2 = 0	119.18 m/s
